In experiment [1] the target is T1, CDK2/CycE (Homo sapiens, UniProt P24941).
T1 construct: purchased ProQinase GmbH (Freiburg, Germany); host or cells: insect cells (Sf9)
Nature of the experiment: CDK2/CycE kinase assay (TR-FRET, 2 mM ATP). The experiment is classed as biochemical. The conditions noted are these: 2 mM ATP (high ATP); median; read-out: CDK2/CyclinE, 2 mM ATP (high ATP), IC50 (median). An outline of the steps: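 GST-tagged human CDK2 and CycE from Sf9 cells, about 10 ng/ml, pre-incubated 15 min at 22 °C with compound in Tris/HCl pH 8.0 buffer. Reaction with 2 mM ATP and 0.75 µM biotinylated peptide for 25 min at 22 °C. Phospho-RB antibody TR-FRET (665/620 nm ratio) read after 1 h; data normalised to no-inhibitor and no-enzyme controls.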
A general note: Time-resolved FRET reads energy transfer from a long-lived donor to a nearby acceptor.

The test system of experiment [2] is CAL-120, human breast adenocarcinoma cells. Nature of the experiment: Proliferation assay CAL-120 (crystal violet, 4 days). The experiment is classed as cell-based. The conditions noted are these: CAL-120 cells, median, read-out: Prolif-CAL-120, IC50-[mol/l] (median). An outline of the steps: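 Plated 4,000 cells/well, 10% FCS; 24 h later treated 0.01-10 µmol/L cpd (DMSO 0.1%), 4 d. Fix glutaraldehyde, stain 0.1% crystal violet pH 3.0, elute acetic acid, A595. Normalized to t0 plate/untreated; 4-param IC50.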

In experiment [3] the target is T2, CDK12 (nuclear staining in CAL-120 cells) (Homo sapiens, UniProt Q9NYV4).
T2 construct: endogenous in cells; host or cells: CAL-120 human breast cancer cells (DSMZ ACC 459)
Nature of the experiment: CDK12 nuclear protein level: immunofluorescence/high content analysis (CAL-120). The experiment is classed as cell-based. The conditions noted are these: for DC50: CAL-120 cells, 24 h, immunofluorescence, 50% reduction of nuclear CDK12 staining intensity, median, read-out: CDK12 degradation IF, DC50- [mol/l] (median); for (IC50 CDK12 high ATP) to (Degradation DC50 CDK12) ratio: ratio of IC50 CDK12 high ATP kinase assay to DC50 CDK12 degradation (IF, CAL-120). Put shortly:
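CAL-120 cells were treated with compound for 24 h at 37 °C, fixed with PFA and immunostained for CDK12. Nuclear CDK12 intensity was quantified by automated image analysis and normalized to DMSO and control. DC50 is the concentration giving 50% reduction of nuclear staining.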

Where two headings read alike, the source gives them in different places.

T2 sequence (Q9NYV4 whole entry): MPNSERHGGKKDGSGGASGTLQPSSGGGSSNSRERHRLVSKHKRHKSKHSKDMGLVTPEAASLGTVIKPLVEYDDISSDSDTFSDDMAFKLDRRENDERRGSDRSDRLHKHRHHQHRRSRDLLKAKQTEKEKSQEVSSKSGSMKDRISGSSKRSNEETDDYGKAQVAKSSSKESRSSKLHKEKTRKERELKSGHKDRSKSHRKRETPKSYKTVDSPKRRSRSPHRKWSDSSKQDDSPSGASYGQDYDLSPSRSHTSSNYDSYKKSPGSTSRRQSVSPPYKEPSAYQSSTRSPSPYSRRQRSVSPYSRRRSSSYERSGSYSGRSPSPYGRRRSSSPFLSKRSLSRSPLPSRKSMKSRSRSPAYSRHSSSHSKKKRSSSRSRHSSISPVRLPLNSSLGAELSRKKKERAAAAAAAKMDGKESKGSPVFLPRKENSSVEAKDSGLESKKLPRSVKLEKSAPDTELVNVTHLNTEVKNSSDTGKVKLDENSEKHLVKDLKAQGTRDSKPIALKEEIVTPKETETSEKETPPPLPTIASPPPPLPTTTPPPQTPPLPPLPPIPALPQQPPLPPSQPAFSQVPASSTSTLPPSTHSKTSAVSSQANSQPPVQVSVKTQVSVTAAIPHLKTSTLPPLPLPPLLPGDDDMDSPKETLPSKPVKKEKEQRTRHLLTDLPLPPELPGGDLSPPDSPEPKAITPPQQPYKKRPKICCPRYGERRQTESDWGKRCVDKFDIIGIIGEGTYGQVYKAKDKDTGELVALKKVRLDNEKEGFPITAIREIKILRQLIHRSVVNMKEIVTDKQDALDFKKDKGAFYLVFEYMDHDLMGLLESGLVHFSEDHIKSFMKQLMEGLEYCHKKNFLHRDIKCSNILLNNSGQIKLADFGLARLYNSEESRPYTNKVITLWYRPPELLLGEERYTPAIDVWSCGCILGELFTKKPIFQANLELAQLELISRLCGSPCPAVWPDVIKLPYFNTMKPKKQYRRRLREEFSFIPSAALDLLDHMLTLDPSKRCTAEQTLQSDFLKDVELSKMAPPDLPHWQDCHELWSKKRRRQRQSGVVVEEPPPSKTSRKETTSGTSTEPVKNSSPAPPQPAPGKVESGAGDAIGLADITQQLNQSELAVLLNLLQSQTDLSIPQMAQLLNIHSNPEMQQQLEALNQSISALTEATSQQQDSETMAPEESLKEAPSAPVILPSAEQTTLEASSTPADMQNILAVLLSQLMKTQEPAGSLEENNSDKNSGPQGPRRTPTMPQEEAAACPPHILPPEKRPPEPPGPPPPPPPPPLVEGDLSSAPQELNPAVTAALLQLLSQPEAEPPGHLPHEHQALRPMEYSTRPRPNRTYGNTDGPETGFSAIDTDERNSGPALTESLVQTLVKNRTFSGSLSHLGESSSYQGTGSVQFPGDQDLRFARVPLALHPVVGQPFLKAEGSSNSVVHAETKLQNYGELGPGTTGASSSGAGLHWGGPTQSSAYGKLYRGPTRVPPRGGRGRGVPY
T2 sequence (O75909 whole entry partner): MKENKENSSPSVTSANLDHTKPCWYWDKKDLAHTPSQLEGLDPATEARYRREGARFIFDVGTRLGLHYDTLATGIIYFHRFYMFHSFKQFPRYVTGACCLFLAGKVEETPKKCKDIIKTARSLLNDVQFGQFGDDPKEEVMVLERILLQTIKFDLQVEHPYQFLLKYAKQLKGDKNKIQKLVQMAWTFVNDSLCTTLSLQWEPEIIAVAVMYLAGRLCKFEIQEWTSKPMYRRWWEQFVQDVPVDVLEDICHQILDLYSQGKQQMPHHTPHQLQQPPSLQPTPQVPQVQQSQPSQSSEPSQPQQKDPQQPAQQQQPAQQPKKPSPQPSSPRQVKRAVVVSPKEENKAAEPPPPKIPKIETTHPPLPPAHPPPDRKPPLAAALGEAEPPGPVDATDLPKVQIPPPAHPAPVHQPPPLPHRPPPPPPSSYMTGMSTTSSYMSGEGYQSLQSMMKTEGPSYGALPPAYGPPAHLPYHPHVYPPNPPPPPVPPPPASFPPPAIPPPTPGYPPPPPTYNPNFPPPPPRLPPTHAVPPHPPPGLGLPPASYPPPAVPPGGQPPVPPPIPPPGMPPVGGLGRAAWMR

`Cc1cc2nc(CNc3nc(N4CCN(C)CC4)nc4c(C5CC5)cnn34)[nH]c2cc1C` [Example 312, 8-cyclopropyl-N-[(5,6-dimethyl-1H-benzimidazol-2-yl)methyl]-2-(4-methylpiperazin-1-yl)pyrazolo[1,5-a][1,3,5]triazin-4-amine]: the IC50 in experiment [1] is > 12.5 µM. In experiment [2] (Homo sapiens, CAL-120, 96 h), the IC50 was 2.32 nM. For the same molecule, in experiment [3], the DC50 turned out to be 3.9 nM and the “(IC50 CDK12 high ATP) to (Degradation DC50 CDK12) ratio” value worked out at 2616.
The corresponding values for `Fc1ccc2[nH]c(CNc3nc(N4C[C@H]5CC[C@@H](C4)N5)nc4c(C5CC5)cnn34)nc2c1F` [Example 294, 8-cyclopropyl-2-[(1R,5S)-3,8-diazabicyclo[3.2.1]octan-3-yl]-N-[(4,5-difluoro-1H-benzimidazol-2-yl)methyl]pyrazolo[1,5-a][1,3,5]triazin-4-amine] are 17.2 µM, 1.42 nM, 2.73 nM and 684.
The corresponding values for `Fc1cc2nc(CNc3nc(N4CCOCC4)nc4c(C5CC5)cnn34)[nH]c2cc1Cl` [Example 307, N-[(6-chloro-5-fluoro-1H-benzimidazol-2-yl)methyl]-8-cyclopropyl-2-(morpholin-4-yl)pyrazolo[1,5-a][1,3,5]triazin-4-amine] are > 20 µM, 4.6 nM, 8.26 nM and 190.
For the molecule `CN1CCN(c2nc(NCc3nc4ccccc4[nH]3)n3ncc(Br)c3n2)C(CO)C1` (single isomer, unassigned) [Example 280, [(2R or S)-1-(4-{[(1H-benzimidazol-2-yl)methyl]amino}-8-bromopyrazolo[1,5-a][1,3,5]triazin-2-yl)-4-methylpiperazin-2-yl]methanol], in experiment [1], the IC50 worked out at 17.4 µM. For the same molecule, the IC50 in experiment [2] (Homo sapiens, CAL-120, 96 h) stood at 64.1 nM. Further, in experiment [3], the DC50 amounted to 21.4 nM and the “(IC50 CDK12 high ATP) to (Degradation DC50 CDK12) ratio” value was determined as 678.
The corresponding values for `FC(F)(F)Cc1cnn2c(NCc3nc4cc(Cl)ccc4[nH]3)nc(N3CCOCC3)nc12` [Example 299, N-[(5-chloro-1H-benzimidazol-2-yl)methyl]-2-(morpholin-4-yl)-8-(2,2,2-trifluoroethyl)pyrazolo[1,5-a][1,3,5]triazin-4-amine] are > 20 µM, 4.71 nM, 7.77 nM and 822.
Regarding `Fc1ccc2[nH]c(CNc3nc(N4CCOCC4)nc4c(Br)cnn34)nc2c1F` [Example 25, 8-bromo-N-[(4,5-difluoro-1H-benzimidazol-2-yl)methyl]-2-(morpholin-4-yl)pyrazolo[1,5-a][1,3,5]triazin-4-amine], the IC50 in experiment [1] stood at 4.56 µM. Further, in experiment [2] (Homo sapiens, CAL-120, 96 h), the IC50 was found to be 2.62 nM. In addition, in experiment [3], the DC50 was found to be 0.674 nM and the “(IC50 CDK12 high ATP) to (Degradation DC50 CDK12) ratio” value is listed as 1084.
The corresponding values for `CN(CC(C)(C)O)c1nc(NCc2nc3cc(Cl)c(Cl)cc3[nH]2)n2ncc(C3CC3)c2n1` [Example 306, 1-[(8-cyclopropyl-4-{[(5,6-dichloro-1H-benzimidazol-2-yl)methyl]amino}pyrazolo[1,5-a][1,3,5]triazin-2-yl)(methyl)amino]-2-methylpropan-2-ol] are > 20 µM, 7.21 nM, 12.7 nM and 146.
In the case of `CC1CN(C)CCN1c1nc(NCc2nc3ccccc3[nH]2)n2ncc(Br)c2n1` (single isomer, unassigned; enantiomer 1) [Example 260, N-(1H-benzimidazol-2-ylmethyl)-8-bromo-2-[(2R or S)-2,4-dimethylpiperazin-1-yl]pyrazolo[1,5-a][1,3,5]triazin-4-amine (Enantiomer 1)], in experiment [1], the IC50 was 2.98 µM. Moreover, the IC50 in experiment [2] came to 6.03 nM. For the same molecule, in experiment [3], the DC50 amounted to 1.78 nM and the “(IC50 CDK12 high ATP) to (Degradation DC50 CDK12) ratio” value is reported as 6819.
For `CC1(O)CCN(c2nc(NCc3nc4ccccc4[nH]3)n3ncc(Br)c3n2)C1` (single isomer, unassigned) [Example 282, (3R or S)-1-(4-{[(1H-benzimidazol-2-yl)methyl]amino}-8-bromopyrazolo[1,5-a][1,3,5]triazin-2-yl)-3-methylpyrrolidin-3-ol], in experiment [1], the IC50 worked out at 10.2 µM. Also, the IC50 in experiment [2] (Homo sapiens, CAL-120, 96 h) turned out to be 45.2 nM. Besides, in experiment [3], the DC50 worked out at 27.9 nM and the “(IC50 CDK12 high ATP) to (Degradation DC50 CDK12) ratio” value was >320.
The corresponding values for `C[C@@H]1CN(c2nc(NCc3nc4ccccc4[nH]3)n3ncc(C4CC4)c3n2)C[C@H](C)N1` [Example 248, N-[(1H-benzimidazol-2-yl)methyl]-8-cyclopropyl-2-[(3R,5S)-3,5-dimethylpiperazin-1-yl]pyrazolo[1,5-a][1,3,5]triazin-4-amine] are > 20 µM, 3.13 nM, 0.946 nM and 9730.
Consider `CC(C)CNc1nc(NCc2nc3ccccc3[nH]2)n2ncc(Br)c2n1` [Example 285, N^4-[(1H-benzimidazol-2-yl)methyl]-8-bromo-N^2-(2-methylpropyl)pyrazolo[1,5-a][1,3,5]triazine-2,4-diamine], for which the IC50 in experiment [1] was 2.55 µM; in experiment [2] (Homo sapiens, CAL-120, 96 h) it was 80.3 nM. In addition, the DC50 in experiment [3] turned out to be 32.3 nM. Moreover, the “(IC50 CDK12 high ATP) to (Degradation DC50 CDK12) ratio” value in experiment [3] worked out at 200.
As for `N[C@H]1[C@@H]2C[C@H]1CN(c1nc(NCc3nc4ccccc4[nH]3)n3ncc(Br)c3n1)C2` [Example 288, 2-[(1R,5S,6r)-6-amino-3-azabicyclo[3.1.1]heptan-3-yl]-N-[(1H-benzimidazol-2-yl)methyl]-8-bromopyrazolo[1,5-a][1,3,5]triazin-4-amine], the IC50 in experiment [1] amounted to 2.64 µM. In experiment [2] (Homo sapiens, CAL-120, 96 h), the IC50 stood at 1.8 nM. In experiment [3], the DC50 turned out to be 1.16 nM and the “(IC50 CDK12 high ATP) to (Degradation DC50 CDK12) ratio” value is recorded as 2920.
The corresponding values for `FC(F)(F)Cc1cnn2c(NCc3nc4ccccc4[nH]3)nc(N3CCOCC3)nc12.O=CO` [Example 265, formic acid-N-[(1H-benzimidazol-2-yl)methyl]-2-(morpholin-4-yl)-8-(2,2,2-trifluoroethyl)pyrazolo[1,5-a][1,3,5]triazin-4-amine (1/1)] are > 20 µM, 35.4 nM, 7.23 nM and >2310.
The corresponding values for `c1ccc2[nH]c(CNc3nc(N4CCOCC4)nc4c(C5CCC5)cnn34)nc2c1` [Example 263, N-[(1H-benzimidazol-2-yl)methyl]-8-cyclobutyl-2-(morpholin-4-yl)pyrazolo[1,5-a][1,3,5]triazin-4-amine] are > 20 µM, 28.9 nM, 23.4 nM and 294.
On to `Brc1cnn2c(NCc3nc4ccccc4[nH]3)nc(N3C[C@H]4CNC[C@H]4C3)nc12` [Example 283, N-[(1H-benzimidazol-2-yl)methyl]-8-bromo-2-[(3aR,6aS)-hexahydropyrrolo[3,4-c]pyrrol-2(1H)-yl]pyrazolo[1,5-a][1,3,5]triazin-4-amine], for which, in experiment [1], the IC50 was 7.62 µM. The IC50 in experiment [2] (Homo sapiens, CAL-120, 96 h) turned out to be 26.1 nM. Also, in experiment [3], the DC50 came to 6.97 nM and the “(IC50 CDK12 high ATP) to (Degradation DC50 CDK12) ratio” value was determined as 2630.
As for `CC1CN(C)CCN1c1nc(NCc2nc3ccccc3[nH]2)n2ncc(Br)c2n1` (single isomer, unassigned; enantiomer 2) [Example 261, N-(1H-benzimidazol-2-ylmethyl)-8-bromo-2-[(2R or S)-2,4-dimethylpiperazin-1-yl]pyrazolo[1,5-a][1,3,5]triazin-4-amine (Enantiomer 2)], the IC50 in experiment [1] was determined as 7.29 µM; in experiment [2], 38.9 nM. Moreover, in experiment [3], the DC50 was 19.9 nM. Further, the “(IC50 CDK12 high ATP) to (Degradation DC50 CDK12) ratio” value in experiment [3] was >942.
Take `CN[C@H]1CCN(c2nc(NCc3nc4ccccc4[nH]3)n3ncc(Br)c3n2)C1` [Example 252, N-[(1H-benzimidazol-2-yl)methyl]-8-bromo-2-[(3S)-3-(methylamino)pyrrolidin-1-yl]pyrazolo[1,5-a][1,3,5]triazin-4-amine]: the IC50 in experiment [1] worked out at 13.3 µM; in experiment [2] (Homo sapiens, CAL-120, 96 h), 38.7 nM. Besides, the DC50 in experiment [3] amounted to 1.17 nM. The “(IC50 CDK12 high ATP) to (Degradation DC50 CDK12) ratio” value in experiment [3] was >17030.
The corresponding values for `Brc1cnn2c(NCc3nc4ccccc4[nH]3)nc(NCC3CC3)nc12` [Example 284, N^4-[(1H-benzimidazol-2-yl)methyl]-8-bromo-N^2-(cyclopropylmethyl)pyrazolo[1,5-a][1,3,5]triazine-2,4-diamine] are 1.99 µM, 73.8 nM, 48.5 nM and 113.
